Consider 21 compounds from paper PMC5547393, “Aromatase inhibitory activity of 1,4-naphthoquinone derivatives and QSAR study” (EXCLI Journal, 2017).

In data set [1] the test system is MRC-5 cell line. Details: method as in Prachayasittikul et al., 2014[35]. Particulars: normal MRC-5 cell line, ref Prachayasittikul et al., 2014[35], cited from earlier work; for IC50: read-out: MRC-5 (µM) cytotoxicity.
Data set [2] deals with T1, recombinant human aromatase (CYP19) (Homo sapiens, UniProt P11511).
T1 sequence (P11511 1-503): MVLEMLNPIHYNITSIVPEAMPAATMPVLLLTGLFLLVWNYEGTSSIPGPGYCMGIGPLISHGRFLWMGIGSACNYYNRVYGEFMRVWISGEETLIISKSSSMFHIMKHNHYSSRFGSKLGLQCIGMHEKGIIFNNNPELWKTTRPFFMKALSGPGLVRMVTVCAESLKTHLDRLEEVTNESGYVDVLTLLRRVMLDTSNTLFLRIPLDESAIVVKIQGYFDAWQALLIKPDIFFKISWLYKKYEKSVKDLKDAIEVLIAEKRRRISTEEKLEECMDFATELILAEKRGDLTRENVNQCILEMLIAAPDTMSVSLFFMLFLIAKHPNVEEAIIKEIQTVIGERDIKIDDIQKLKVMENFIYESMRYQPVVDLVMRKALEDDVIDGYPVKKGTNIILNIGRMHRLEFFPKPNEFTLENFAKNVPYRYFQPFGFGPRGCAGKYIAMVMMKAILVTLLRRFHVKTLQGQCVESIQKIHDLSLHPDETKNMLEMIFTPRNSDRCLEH
The experiment in a line: Aromatase inhibition assay (Gentest kit, CYP19 with DBF fluorometric substrate). Conditions: for Aromatase inhibitory activity category: category by experimental IC50.
Experimental: The assay was performed with a Gentest kit using enzyme CYP19 and DBF as a fluorometric substrate. DBF was dealkylated by aromatase and then hydrolyzed, yielding the fluorescein product. […] After the incubation at 37 °C for 30 min, the reaction was terminated by adding 50 µL of 2.2 N NaOH. […] The percentage of inhibition (% inhibition) was calculated using Equation 1. […] IC50 values were determined by plotting concentrations versus % inhibition.

The next data set concerns the target aromatase. The experiment in a line: QSAR (MLR) prediction of aromatase inhibitory activity. Conditions: for pIC50 fold greater than parent compound 1: predicted pIC50 versus experimental pIC50 0.301 of compound 1; for folds more potent than the compared analogue: pairs: 6c > 6, 7c > 7, 7a > 7, 6 > 6a, 7b > 7a, pIC50 based. From the text:
Conceptually, a QSAR model was constructed using the data obtained from experimentally tested compounds (1-11). The constructed model was subsequently used to predict the activity of the additional set of structurally modified compounds (series 1-11) that were generated in silico.
Chemical structures of the tested compounds (1-11) along with their experimental IC50 values were used to construct the QSAR model. The IC50 values were converted to pIC50 values by taking the negative logarithm to base 10 (-log IC50) to obtain a normal distribution of data points.
The chemical structures of 11 tested compounds (1-11) and 39 structurally modified compounds (series 1-11) were drawn using the GaussView software (Dennington et al., 2003[11]). Optimization was performed to obtain the low-energy conformers for further calculation of molecular descriptor values. The compounds were geometrically optimized using Gaussian 09 (Frisch et al., 2009[13]) at the semi-empirical Austin Model 1 (AM1) level, followed by density functional theory (DFT) calculation using Becke's three-parameter hybrid method with the Lee-Yang-Parr correlation functional (B3LYP) together with the 6-31g(d) level. A set of 13 quantum chemical descriptors, i.e., mean absolute atomic charge (Qm), total energy (Etotal), total dipole moment (μ), highest occupied molecular orbital energy (EHOMO), lowest unoccupied molecular orbital energy (ELUMO), energy difference of HOMO and LUMO (HOMO-LUMOGap), electron affinity (EA), ionization potential (IP), Mulliken electronegativity (χ), hardness (η), softness (S), electrophilic index (ωi) and electrophilicity (ω), was extracted using a script developed in-house. The optimized structures were further calculated to obtain an additional set of 3,224 molecular descriptors using Dragon software version 5.5 (Talete, 2007[44]). The molecular descriptors obtained from the Dragon software included 22 classes, i.e., Constitutional descriptors, Topological descriptors, Walk and path counts, Connectivity indices, Information indices, 2D autocorrelation, Edge adjacency indices, Burden eigenvalues, Topological charge indices, Eigenvalue-based indices, Randic molecular profiles, Geometrical descriptors, RDF descriptors, 3D-MoRSE descriptors, WHIM descriptors, GETAWAY descriptors, Functional group counts, Atom-centered fragments, Charge descriptors, Molecular properties, 2D binary fingerprints and 2D frequency fingerprints.
Correlation-based feature selection was employed to initially select important descriptors from a large set of descriptors obtained from the calculation. The pair-correlation of each descriptor value and bioactivity (pIC50) was calculated using a Pearson's correlation coefficient (r) of 0.6 as a cut-off value. Descriptors with |r| < 0.6 were considered weakly correlated descriptors and were excluded from the study, whereas those with |r| ≥ 0.6 were selected for further selection process using stepwise multiple linear regression (MLR) as implemented in SPSS statistics 18.0 (SPSS Inc., USA[41]). Finally, a set of important descriptors was obtained for multivariate analysis.
Multivariate analysis was performed by Waikato Environment for Knowledge Analysis (WEKA) version 3.4.5 (Witten et al., 2011[47]) using a multiple linear regression (MLR) algorithm. Selected descriptor values and pIC50 values were assigned as independent variables (X) and dependent variables (Y), respectively. The MLR model was constructed according to Equation 2: […]
The data set was divided into a training set and a testing set by means of leave-one-out cross validation (LOO-CV). Conceptually, one sample was removed from the entire data set (N) and was used as the testing set, whereas the remaining samples (N-1) were used as the training set. The same sampling process was continued until every sample in the data set was used as the testing set to predict the variable Y (activity). […]

The subject of data set [3] is MRC-5 cell line. The experiment in a line: Cytotoxicity against the normal MRC-5 cell line. The class given is cell-based. Conditions: MRC-5 cytotoxicity versus aromatase IC50. From the text:
The cytotoxicity of compounds 1-11 against the normal MRC-5 cell line (Table 1(Tab. 1)) was previously documented (Prachayasittikul et al., 2014[35]).

The mark [4] stands for this setting: Aromatase inhibitory activity IC50, Inactive = % inhibition ≤ 50 % at 12.5 µM.
Where [5] appears, read: Experimental aromatase inhibitory activity (pIC50), -log IC50 of the experimental IC50 values.

The structures appear in SMILES notation.

`O=C1C(Cl)=C(Nc2ccccc2)C(=O)c2ccccc21` [Compound 3]: the IC50 in the data set with MRC-5 cell line [1] was 16.4 ± 1.28 µM. The “Aromatase inhibitory activity category” value in data set [2] was “inactive”.
For the compound `O=C1C(Br)=C(Br)C(=O)c2ccccc21` [Compound 1a], the “pIC50 fold greater than parent compound 1” value at aromatase was 1.83 fold.
Turning to `CCCCNC1=C(Cl)C(=O)c2ccccc2C1=O` [Compound 2], the “MRC-5 (µM) cytotoxicity” value with MRC-5 cell line [1] is “non-cytotoxic”. For the same compound, the values for the IC50 in data set [2] (setting [4]) and in data set [2] (setting [5]) were 8.7 ± 0.9 µM and 8.71 µM, respectively. Further, the “Aromatase inhibitory activity category” value in data set [2] is “moderately active (moderately active (1 µM < IC50 < 10 µM))”.
`O=C1C(Cl)=C(Nc2ccc(C(=O)C(F)(F)F)cc2)C(=O)c2ccccc21` [Compound 7a]: the “folds more potent than the compared analogue” value with aromatase is reported as 1.47 folds.
With `CCN(C1=C(Cl)C(=O)c2ccccc2C1=O)c1ccccc1` [Compound 4a], the “pIC50 fold greater than parent compound 1” value on aromatase is 1.08 fold. Further, the “fold less potent than letrozole” value with aromatase (predicted pIC50 versus letrozole) was 10.68 fold.
In the case of `CC(=O)c1ccc(N(C)C2=C(Cl)C(=O)c3ccccc3C2=O)cc1` [Compound 7c], the “folds more potent than the compared analogue” value in the data set with aromatase is reported as 2.73 folds.
Turning to `O=C1C(F)=C(F)C(=O)c2ccccc21` [Compound 1c], at aromatase, the “pIC50 fold greater than parent compound 1” value is reported as 2.04 fold.
For `CC(=O)c1cccc(N(C)C2=C(Cl)C(=O)c3ccccc3C2=O)c1` [Compound 6c], the “folds more potent than the compared analogue” value in the data set with aromatase was 1.67 folds.
For the compound `CC(=O)c1cccc(NC2=C(Cl)C(=O)c3ccccc3C2=O)c1` [Compound 6], the “folds more potent than the compared analogue” value with aromatase was 1.83 folds. In addition, the “SI (selectivity index)” value in the data set with MRC-5 cell line [3] is given as 5.01. In addition, the IC50 was 15.5 ± 0.75 µM with MRC-5 cell line [1], 3.1 µM in data set [2] (setting [4]) and 3.1 µM in data set [2] (setting [5]). The “Aromatase inhibitory activity category” value in data set [2] is “moderately active (moderately active (1 µM < IC50 < 10 µM))”.
As for `CN(C1=C(Cl)C(=O)c2ccccc2C1=O)c1ccc(C(=O)O)cc1` [Compound 5d], the “folds more potent than ketoconazole” value with aromatase (predicted pIC50 -0.329 versus ketoconazole pIC50 -0.415) was 1.26 folds.
With `COc1cccc2c1C(=O)c1c(O)c3c(c(O)c1C2=O)C[C@@](O)(C(=O)CO)C[C@@H]3O[C@H]1C[C@H](N)[C@H](O)[C@H](C)O1` [Doxorubicin, reference compound], the “MRC-5 (µM) cytotoxicity” value in the data set with MRC-5 cell line [1] is recorded as “non-cytotoxic”.
As to `O=C1C(Cl)=C(Nc2ccc(Nc3ccccc3)cc2)C(=O)c2ccccc21` [Compound 8], in the data set with MRC-5 cell line [3], the “SI (selectivity index)” value stood at 10.94. The IC50 in the data set on MRC-5 cell line [1] is 20.8 ± 0.68 µM; in data set [2] (setting [4]), 1.9 µM; in data set [2] (setting [5]), 1.9 µM. Moreover, the “Aromatase inhibitory activity category” value in data set [2] was “moderately active (moderately active (1 µM < IC50 < 10 µM))”.
With `CN(C1=C(Cl)C(=O)c2ccccc2C1=O)c1ccc(C(=O)C(F)(F)F)cc1` [Compound 7b], the “folds more potent than the compared analogue” value in the data set on aromatase is given as 2.28 folds.
For the compound `O=C1C(Cl)=C(NCCc2ccccc2)C(=O)c2ccccc21` [Compound 10], in the data set on MRC-5 cell line [1], the “MRC-5 (µM) cytotoxicity” value is “non-cytotoxic”. Further, the IC50 in data set [2] (setting [4]) and in data set [2] (setting [5]) was 3.3 µM in each case. Moreover, the “Aromatase inhibitory activity category” value in data set [2] is recorded as “moderately active (moderately active (1 µM < IC50 < 10 µM))”.
`COc1ccc(CCNC2=C(Cl)C(=O)c3ccccc3C2=O)cc1OC` [Compound 11]: in the data set with MRC-5 cell line [1], the “MRC-5 (µM) cytotoxicity” value was “non-cytotoxic”. Moreover, the “Aromatase inhibitory activity category” value in data set [2] was “inactive”.
With `O=C1C(Cl)=C(Nc2cccc3cccnc23)C(=O)c2ccccc21` [Compound 9], the “SI (selectivity index)” value in the data set on MRC-5 cell line [3] is reported as 2.89. Further, the results for the IC50 (in the data set on MRC-5 cell line [1]; in data set [2] (setting [4]); in data set [2] (setting [5])) were 13.6 ± 1.33 µM, 4.7 µM and 4.7 µM, respectively. In addition, in data set [2], the “Aromatase inhibitory activity category” value is “moderately active (moderately active (1 µM < IC50 < 10 µM))”.
Regarding `O=C(O)c1ccccc1NC1=C(Cl)C(=O)c2ccccc2C1=O` [Compound 5], the “SI (selectivity index)” value in the data set on MRC-5 cell line [3] worked out at 4.78. Moreover, the IC50 in the data set on MRC-5 cell line [1] was 86 ± 3.04 µM; in data set [2] (setting [4]), 18 µM; in data set [2] (setting [5]), 18 µM. Further, the “Aromatase inhibitory activity category” value in data set [2] is “weak”.
In the case of `CC(=O)c1ccc(NC2=C(Cl)C(=O)c3ccccc3C2=O)cc1` [Compound 7], the “SI (selectivity index)” value in the data set on MRC-5 cell line [3] is reported as 2.32. Moreover, the IC50 with MRC-5 cell line [1] is 12.3 ± 1.08 µM; in data set [2] (setting [4]), 5.3 µM; in data set [2] (setting [5]) it was 5.3 µM. The “Aromatase inhibitory activity category” value in data set [2] was “moderately active (moderately active (1 µM < IC50 < 10 µM))”.
In the case of `O=C1C(I)=C(I)C(=O)c2ccccc21` [Compound 1b], at aromatase, the “pIC50 fold greater than parent compound 1” value is reported as 11.90 fold. For the same compound, the “pIC50 fold greater than letrozole” value on aromatase (predicted pIC50 versus experimental pIC50 […] of letrozole) is 1.03 fold.
For the compound `O=C1C(Cl)=C(Cl)C(=O)c2ccccc21` [Compound 1, 2,3-dichloro-1,4-naphthoquinone], in the data set on MRC-5 cell line [3], the “SI (selectivity index)” value is given as 45.98. Moreover, the IC50 is 23 ± 0.42 µM in the data set on MRC-5 cell line [1], 0.5 ± 0.3 µM in data set [2] (setting [4]) and 0.5 µM in data set [2] (setting [5]). In data set [2], the “IC50 fold lower than ketoconazole” value came out at 5.2 fold. Further, the “Aromatase inhibitory activity category” value in data set [2] is recorded as “highly active (highly active (IC50 < 1 µM))”.
In the case of `CN(C1=C(Cl)C(=O)c2ccccc2C1=O)c1ccccc1` [Compound 4], in the data set with MRC-5 cell line [3], the “SI (selectivity index)” value is 17.20. Moreover, the IC50 in the data set with MRC-5 cell line [1] was 8.6 ± 0.77 µM; in data set [2] (setting [4]) it was 0.5 ± 0.4 µM; in data set [2] (setting [5]) it was 0.5 µM. Also, the “Aromatase inhibitory activity category” value in data set [2] is “highly active (highly active (IC50 < 1 µM))”.
